We go through 8 compounds from patent US8501809B2, “Inhibitors of α4 mediated cell adhesion” (Mitsubishi Tanabe Pharma Corporation, priority 2000, dated 2013).

Usually melting point stands for the temperature of the solid-liquid transition.

Compound `CCOCc1cc(OC)c(-c2ccc(C[C@H](NC(=O)c3c(F)cccc3F)C(=O)OCC)cc2)c(OC)c1` [Example 10, N-(2,6-Difluorobenzoyl)-4-(2,6-dimethoxy-4-ethoxymethylphenyl)-L-phenylalanine ethyl ester] showed a melting point of 87 to 89 °C. `COCc1cc(OC)c(-c2ccc(C[C@H](NC(=O)c3c(F)cccc3Cl)C(=O)O)cc2)c(OC)c1` [Example 23, N-(2-Chloro-6-fluorobenzoyl)-4-(2,6-dimethoxy-4-methoxymethylphenyl)-L-phenylalanine] yielded a melting point of 170 to 175 °C.

`CCCOCc1cc(OC)c(-c2ccc(C[C@H](NC(=O)c3c(Cl)cccc3Cl)C(=O)O)cc2)c(OC)c1` [Example 7, N-(2,6-Dichlorobenzoyl)-4-(2,6-dimethoxy-4-n-propoxymethylphenyl)-L-phenylalanine] had a melting point of 183 to 186 °C.

Compound `CCOCCc1cc(OC)c(-c2ccc(C[C@H](NC(=O)c3c(F)cccc3F)C(=O)O)cc2)c(OC)c1` [Example 31, N-(2,6-Difluorobenzoyl)-4-[2,6-dimethoxy-4-(2-ethoxyethyl)phenyl]-L-phenylalanine] gave a melting point of 63 to 70 °C. To `CCOCc1cc(OC)c(-c2ccc(C[C@H](NC(=O)c3c(Cl)cccc3Cl)C(=O)O)cc2)c(OC)c1` [Example 3, N-(2,6-Dichlorobenzoyl)-4-(2,6-dimethoxy-4-ethoxymethylphenyl)-L-phenylalanine] belongs 196 to 198 °C; to `CCOCc1cc(OC)c(-c2ccc(C[C@H](NC(=O)c3c(Cl)cccc3Cl)C(=O)OCC)cc2)c(OC)c1` [Example 1, N-(2,6-Dichlorobenzoyl)-4-(2,6-dimethoxy-4-ethoxymethylphenyl)-L-phenylalanine ethyl ester], 91 to 94 °C; to `COCc1cc(OC)c(-c2ccc(C[C@H](NC(=O)c3c(Cl)cccc3Cl)C(=O)O)cc2)c(OC)c1` [Example 5, N-(2,6-Dichlorobenzoyl)-4-(2,6-dimethoxy-4-methoxymethylphenyl)-L-phenylalanine], 232 to 235 °C. For the compound `CCOCc1cc(OC)c(-c2ccc(C[C@H](NC(=O)c3c(F)cccc3Cl)C(=O)O)cc2)c(OC)c1` [Example 20, N-(2-Chloro-6-fluorobenzoyl)-4-(2,6-dimethoxy-4-ethoxymethylphenyl)-L-phenylalanine], the melting point lay within 182 to 184 °C.
